In patent US20250084087A1, “BICYCLIC HETEROCYCLES AS MRGPRX2 ANTAGONISTS” (Incyte Corporation, priority 2023, published 2025):

Legend:
Assay type in all cases: cell-based
[1] = target: T1, MRGPRX2 (Homo sapiens, UniProt Q96LB1); assay: MRGPRX2 FLIPR calcium mobilization assay; parameters: host or cells: CHO-K1; details: CHO-K1 cells stably expressing human MRGPRX2; Ca2+ release; agonist Cortistatin-14 at EC80
T1 sequence (Q96LB1 1-330): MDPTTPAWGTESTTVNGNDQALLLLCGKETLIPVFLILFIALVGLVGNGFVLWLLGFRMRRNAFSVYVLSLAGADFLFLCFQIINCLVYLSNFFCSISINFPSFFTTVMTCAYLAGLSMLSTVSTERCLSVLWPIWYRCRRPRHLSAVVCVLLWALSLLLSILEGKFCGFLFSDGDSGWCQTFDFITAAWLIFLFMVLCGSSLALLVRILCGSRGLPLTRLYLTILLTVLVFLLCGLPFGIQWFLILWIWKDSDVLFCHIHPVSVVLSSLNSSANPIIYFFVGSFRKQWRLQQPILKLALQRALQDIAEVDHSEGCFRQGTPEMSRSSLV
Procedure, shortened: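 CHO-K1 cells stably expressing the receptor, loaded with Calcium 6 dye, then preincubated 30 min at r.t. with compound in HBSS/20 mM HEPES pH 7.4. Cortistatin-14 at EC80 added; baseline-adjusted maximum RFU read over 110 s. IC50 from 3- or 4-parameter Hill fit.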

[2] = target: T1, MRGPRX2; assay: MRGPRX2 IP1 HTRF assay; parameters: host or cells: CHO-K1; details: CHO-K1 cells stably expressing human MRGPRX2; IP1 accumulation; agonist Cortistatin 14 1 μM
Procedure, shortened: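 CHO-K1 cells stably expressing human MRGPRX2, preincubated with compound 1 h at 37 °C, then stimulated with 1 μM Cortistatin 14 for 1 h. IP1 measured by HTRF against standard curve, normalized to DMSO and reference antagonist controls; IC50 from 3- or 4-parameter Hill fit.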

[3] = target: T1, MRGPRX2; assay: MRGPRX2 β-Arrestin recruitment assay (PathHunter); parameters: host or cells: CHO-K1 (PathHunter); details: PathHunter CHO-K1 MRGPRX2 β-Arrestin cell line; agonist Cortistatin 14 0.25 μM
Procedure, shortened: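 CHO-K1 PathHunter cells co-expressing ProLink-tagged MRGPRX2 and enzyme-acceptor-tagged β-arrestin were preincubated with compound 1 h at 37° C., then stimulated with cortistatin-14 (0.25 μM final) for 90 min. Enzyme-complementation luminescence read after 1 h detection; data normalized to DMSO and reference antagonist, IC50 from 3- or 4-parameter Hill fit.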

Row | SMILES | IC50 [1] | IC50 [2] | IC50 [3]
1 | COc1ccc(C2(CNc3cccc4nc(C(F)(F)F)cn34)CCOCC2)cc1 [Example 39, N-((4-(4-Methoxyphenyl)tetrahydro-2H-pyran-4-yl)methyl)-2-(trifluoromethyl)imidazo[1,2-a]pyridin-5-amine] | 0.0001 to 0.1 µM | 0.0001 to 0.1 µM | 0.0001 to 0.1 µM
2 | CN1CCN(C2CC(CNc3cc(C(F)(F)F)nc4cc(Br)nn34)(c3ccccc3)C2)CC1 (stereo not drawn) [Example 43, 2-Bromo-N-((3-(4-methylpiperazin-1-yl)-1-phenylcyclobutyl)methyl)-5-(trifluoromethyl)pyrazolo[1,5-a]pyrimidin-7-amine] | 0.0001 to 0.1 µM | 0.0001 to 0.1 µM | 0.0001 to 0.1 µM
3 | OCCNC1CC(CNc2cc(C(F)(F)F)nc3cc(Br)nn23)(c2ccccc2)C1 (stereo not drawn) [Example 44, 2-((3-(((2-Bromo-5-(trifluoromethyl)pyrazolo[1,5-a]pyrimidin-7-yl)amino)methyl)-3-phenylcyclobutyl)amino)ethan-1-ol] | 0.0001 to 0.1 µM | 0.0001 to 0.1 µM | 0.0001 to 0.1 µM
4 | N#Cc1cnc(N2CC(CNc3cc(C(F)(F)F)nc4cc(C(F)(F)F)nn34)(c3ccc(F)cc3)C2)cn1 [Example 45, 5-(3-(((2,5-Bis(trifluoromethyl)pyrazolo[1,5-a]pyrimidin-7-yl)amino)methyl)-3-(4-fluorophenyl)azetidin-1-yl)pyrazine-2-carbonitrile] | 0.0001 to 0.1 µM | 0.0001 to 0.1 µM | 0.0001 to 0.1 µM
5 | O=C(N[C@H]1CC[C@H](O)CC1)N1CC(CNc2cc(C(F)(F)F)nc3cc(C(F)(F)F)nn23)(c2ccc(F)cc2)C1 [Example 48, 3-(((2,5-Bis(trifluoromethyl)pyrazolo[1,5-a]pyrimidin-7-yl)amino)methyl)-3-(4-fluorophenyl)-N-((1r,4r)-4-hydroxycyclohexyl)azetidine-1-carboxamide] | 0.0001 to 0.1 µM | 0.0001 to 0.1 µM | 0.0001 to 0.1 µM
6 | O=C(N[C@H]1C[C@H](O)C1)N1CC(CNc2cc(C(F)(F)F)nc3cc(C(F)(F)F)nn23)(c2ccc(F)cc2)C1 [Example 49, 3-(((2,5-Bis(trifluoromethyl)pyrazolo[1,5-a]pyrimidin-7-yl)amino)methyl)-3-(4-fluorophenyl)-N-((1r,3r)-3-hydroxycyclobutyl)azetidine-1-carboxamide] | 0.0001 to 0.1 µM | 0.0001 to 0.1 µM | 0.0001 to 0.1 µM
7 | NC(=O)N1CC(CNc2cc(C(F)(F)F)nc3cc(Cl)nn23)(c2ccc(F)cc2)C1 [Example 57, 3-(((2-Chloro-5-(trifluoromethyl)pyrazolo[1,5-a]pyrimidin-7-yl)amino)methyl)-3-(4-fluorophenyl)azetidine-1-carboxamide] | 0.0001 to 0.1 µM | 0.0001 to 0.1 µM | 0.0001 to 0.1 µM
8 | NC(=O)N1CC(CNc2cc(C(F)(F)F)nc3cc(Br)nn23)(c2ccc(Cl)cc2)C1 [Example 58, 3-(((2-Bromo-5-(trifluoromethyl)pyrazolo[1,5-a]pyrimidin-7-yl)amino)methyl)-3-(4-chlorophenyl)azetidine-1-carboxamide] | 0.0001 to 0.1 µM | 0.0001 to 0.1 µM | 0.0001 to 0.1 µM
9 | NS(=O)(=O)N1CC(CNc2cc(C(F)(F)F)nc3cc(C(F)(F)F)nn23)(c2ccc(F)cn2)C1 [Example 59, 3-(((2,5-Bis(trifluoromethyl)pyrazolo[1,5-a]pyrimidin-7-yl)amino)methyl)-3-(5-fluoropyridin-2-yl)azetidine-1-sulfonamide] | 0.0001 to 0.1 µM | 0.0001 to 0.1 µM | 0.0001 to 0.1 µM
10 | [2H]C([2H])([2H])NC(=O)N1CC(CNc2cc(C(F)(F)F)nc3cc(C(F)(F)F)nn23)(c2ccc(F)cn2)C1 [Example 61, 3-(((2,5-Bis(trifluoromethyl)pyrazolo[1,5-a]pyrimidin-7-yl)amino)methyl)-3-(5-fluoropyridin-2-yl)-N-(methyl-d3)azetidine-1-carboxamide] | 0.0001 to 0.1 µM | 0.0001 to 0.1 µM | 0.0001 to 0.1 µM
11 | [2H]C([2H])([2H])NC(=O)N1CC(CNc2cc(C(F)(F)F)nc3cc(C(F)F)nn23)(c2ccc(F)cc2)C1 [Example 62, 3-(((2-(Difluoromethyl)-5-(trifluoromethyl)pyrazolo[1,5-a]pyrimidin-7-yl)amino)methyl)-3-(4-fluorophenyl)-N-(methyl-d3)azetidine-1-carboxamide] | 0.0001 to 0.1 µM | 0.0001 to 0.1 µM | 0.0001 to 0.1 µM
12 | NC(=O)N1CC(CNc2cc(Cl)nc3cc(C(F)(F)F)nn23)(c2ccc(F)cc2)C1 [Example 66, 3-(((5-Chloro-2-(trifluoromethyl)pyrazolo[1,5-a]pyrimidin-7-yl)amino)methyl)-3-(4-fluorophenyl)azetidine-1-carboxamide] | 0.0001 to 0.1 µM | 0.0001 to 0.1 µM | 0.0001 to 0.1 µM
13 | Cc1cc(NCC2(c3ccc(F)cc3)CN(C(N)=O)C2)n2nc(C(F)(F)F)cc2n1 [Example 67, 3-(4-Fluorophenyl)-3-(((5-methyl-2-(trifluoromethyl)pyrazolo[1,5-a]pyrimidin-7-yl)amino)methyl)azetidine-1-carboxamide] | 0.0001 to 0.1 µM | 0.0001 to 0.1 µM | 0.0001 to 0.1 µM
14 | CCc1cc(NCC2(c3ccc(F)cc3)CN(C(N)=O)C2)n2nc(C(F)(F)F)cc2n1 [Example 68, 3-(((5-Ethyl-2-(trifluoromethyl)pyrazolo[1,5-a]pyrimidin-7-yl)amino)methyl)-3-(4-fluorophenyl)azetidine-1-carboxamide] | 0.0001 to 0.1 µM | 0.0001 to 0.1 µM | 0.0001 to 0.1 µM
15 | NS(=O)(=O)N1CC(CNc2cc(C(F)(F)F)nc3cc(C4CC4)nn23)(n2cccn2)C1 [Example 94, 3-(((2-Cyclopropyl-5-(trifluoromethyl)pyrazolo[1,5-a]pyrimidin-7-yl)amino)methyl)-3-(1H-pyrazol-1-yl)azetidine-1-sulfonamide] | 0.0001 to 0.1 µM | 0.1 to 1 µM | 0.1 to 1 µM
16 | O=C(N[C@H]1CC[C@H](O)CC1)N1CC(CNc2cc(C(F)(F)F)nc3cc(Br)nn23)(c2ccc(F)cc2)C1 [Example 96, 3-(((2-Bromo-5-(trifluoromethyl)pyrazolo[1,5-a]pyrimidin-7-yl)amino)methyl)-3-(4-fluorophenyl)-N-((1r,4r)-4-hydroxycyclohexyl)azetidine-1-carboxamide] | 0.0001 to 0.1 µM | 0.0001 to 0.1 µM | 0.0001 to 0.1 µM
17 | COc1cc(NCC2(c3ccc(F)cc3)CN(S(N)(=O)=O)C2)n2nc(C(F)(F)F)cc2n1 [Example 106, 3-(4-Fluorophenyl)-3-(((5-methoxy-2-(trifluoromethyl)pyrazolo[1,5-a]pyrimidin-7-yl)amino)methyl)azetidine-1-sulfonamide] | 0.0001 to 0.1 µM | 0.0001 to 0.1 µM | 0.0001 to 0.1 µM
